The target of assay [1] is T1, 5-hydroxytryptamine receptor 2C (Homo sapiens, UniProt P28335).
T1 sequence (P28335 whole entry): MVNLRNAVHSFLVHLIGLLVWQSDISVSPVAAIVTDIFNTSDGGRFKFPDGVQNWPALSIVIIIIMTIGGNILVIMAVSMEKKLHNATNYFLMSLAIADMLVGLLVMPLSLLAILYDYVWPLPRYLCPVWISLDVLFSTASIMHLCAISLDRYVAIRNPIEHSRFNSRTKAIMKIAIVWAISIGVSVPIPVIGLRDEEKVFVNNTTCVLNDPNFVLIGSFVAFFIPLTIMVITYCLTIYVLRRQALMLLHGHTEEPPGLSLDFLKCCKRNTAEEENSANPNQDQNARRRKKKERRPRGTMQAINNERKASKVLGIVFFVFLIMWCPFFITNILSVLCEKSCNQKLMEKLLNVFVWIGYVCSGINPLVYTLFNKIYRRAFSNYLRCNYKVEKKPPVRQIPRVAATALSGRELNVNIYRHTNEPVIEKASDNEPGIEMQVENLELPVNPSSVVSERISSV
As to the kind of experiment: Positive allosteric modulation of 5-HT2C receptor (unknown origin) assessed as increase in 5-HT-induced displacement of [3H]mesulergine by measuring 5-HT Ki at 20 uM (Rvb = 159 nM).

Assay [2] addresses T2, Muscarinic acetylcholine receptor M1 (Homo sapiens, UniProt P11229).
T2 sequence (P11229 whole entry): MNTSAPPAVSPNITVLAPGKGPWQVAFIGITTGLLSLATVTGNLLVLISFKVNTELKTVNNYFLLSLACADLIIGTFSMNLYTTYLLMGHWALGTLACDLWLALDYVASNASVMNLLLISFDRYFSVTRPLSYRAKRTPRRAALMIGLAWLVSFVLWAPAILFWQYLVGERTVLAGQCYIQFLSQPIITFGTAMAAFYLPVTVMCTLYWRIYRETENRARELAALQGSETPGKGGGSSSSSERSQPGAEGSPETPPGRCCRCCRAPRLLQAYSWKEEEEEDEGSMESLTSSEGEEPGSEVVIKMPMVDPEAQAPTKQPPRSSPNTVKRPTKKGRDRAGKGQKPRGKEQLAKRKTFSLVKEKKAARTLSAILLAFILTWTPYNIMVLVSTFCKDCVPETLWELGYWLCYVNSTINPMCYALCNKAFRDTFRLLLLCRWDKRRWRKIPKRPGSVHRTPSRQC
As to the kind of experiment: Positive allosteric modulation of M1 AchR (unknown origin).

What is called Ki is a measure of affinity in units of concentration, obtained from inhibition or displacement. Regarding `CCCCCCCCCCC[C@@H]1CCN[C@H](C(=O)N[C@@H]([C@H]2O[C@H](SC)[C@H](O)[C@@H](O)[C@H]2O)[C@H](C)Cl)C1`, the Ki in assay [1] was found to be 6.4 nM.
What is called EC50 is the midpoint of the concentration-response curve. Low readings indicate an effect from little substance, high ones a need for much substance. Regarding `Cn1cc(-c2ccc(Cn3cc(C(=O)N[C@H]4CCCC[C@@H]4O)c4c(F)cc(F)cc43)cn2)cn1`, the EC50 in assay [2] was found to be 210 nM.

The record behind these values is BindingDB's records for doi:10.1021/acs.jmedchem.8b00875 (2019).
